Source: article PMC13379085 (PLOS Neglected Tropical Diseases, 2026)

Columns and labels:
[1] = tested on: Intracellular L. donovani amastigotes; experiment: Luminescence-based assay of intracellular L. donovani burden in THP-1 macrophages; assay type: cell-based, Leishmania donovani
Description: Luminescent strains, L. donovani LV82 expressing firefly luciferase (a kind gift from Dr. Abhay Satoskar, Ohio State University) and L. mexicana (NR-51210, ATCC) expressing renilla luciferase were used to evaluate the effect of the compounds in intracellular and extracellular conditions. Wild-type L. donovani LV82 (ATCC) were used for Giemsa staining based experiments. All parasites were cultured at 25°C and 5% CO2 in M199 media (Corning) supplemented with 10% FBS, 1% Penicillin/Streptomycin, and Hemin (0.01 mg/mL), and used in experiments up to passage 15.
THP-1 cells were seeded in a 96 well plate (25,000 cells/well) overnight then differentiated with 150 nM phorbol 12-myristate 13-acetate (PMA) over 72 hours (S1 Fig). […] Briefly, promastigotes of a known cell density were resuspended in RPMI media (with 10% FBS, 1% P/S and 0.05 mM β-mercaptoethanol) and incubated with adhered THP-1 cells over 18 hours. After infection, cells were washed three times with fresh media to remove extracellular promastigotes.
Infected macrophages were then treated with compounds solubilized in DMSO ranging from 0.1-10 µM in concentrations. After 72 hours of treatment, the viability of the amastigotes within macrophages was determined using Promega firefly luminescence assay (Cat E1500) or Pierce Renilla luciferase assay (Cat 16166) for L. donovani and L. mexicana strains, respectively. Briefly, media was removed, and cells were lysed with the assay lysis buffer. The luciferase substrate was then incubated with the lysed cells for 10 min at room temperature and luminescence of live Leishmania was measured in a white opaque 96 well plate using a Biotek plate reader.

[2] = tested on: THP-1 macrophages; experiment: MTT viability of THP-1 macrophages (host cell cytotoxicity); assay type: cell-based; details: 72 hr incubation up to 300µM
Description: Human monocytes, THP-1 (ATCC, TIB002) were used as host cells for Leishmania infection and to assess drug cytotoxicity. The cells were cultured at 37C, 5% CO2 in RPMI medium (ATCC) supplemented with 10% FBS, 1% Penicillin/Streptomycin and 0.05 mM of β-mercaptoethanol. Cells were used in experiments up to passage 10.
Effect of the compounds on THP-1 cell viability measured using thiazolyl blue tetrazolium bromide which measures cell metabolic activity (MTT). […] Macrophages were then treated with compounds resuspended in RPMI media (1–50 µM) for 24 hours. Media was replaced with thiazolyl blue tetrazolium bromide solubilized in RPMI media (0.5 mg/mL) and incubated at 37°C for 2 hours. The reduced formazan crystals were solubilized with isopropyl alcohol and the absorbance of the resulting solution was measured at 560 nm with a background subtraction at 670 nm. […] This process was repeated with a 72-hr incubation and extended concentration range (1–300 µM) for select compounds.

[3] = target: T1, lysozyme (Homo sapiens, UniProt P61626); experiment: Fluorometric lysozyme activity assay; assay type: biochemical; set-up: purchased Sigma L1667; details: lysozyme 1mg/mL; 0, 1, and 50 µM 197
T1 sequence (P61626 19-148): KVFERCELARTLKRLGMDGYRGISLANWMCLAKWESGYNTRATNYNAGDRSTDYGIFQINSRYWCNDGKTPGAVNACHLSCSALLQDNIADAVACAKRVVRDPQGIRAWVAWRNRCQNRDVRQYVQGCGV
Description: Recombinant human lysozyme protein (1mg/mL, Sigma, Cat # L1667) was incubated with 0 µM, 1 µM or 50 µM 197. Lysozyme activity was measured via a fluorometric assay (Abcam, Cat # ab211113) according to manufacturer’s protocol.

## O=C(CNCc1cccc(F)c1)Nc1ccc(-n2cc(C(F)(F)F)nc2-c2ccc(-c3ccc(C(F)(F)F)cc3)cc2)cc1 [Compound 197]
[1]; host-directed effect vs cytotoxicity in THP-1
  Selectivity 24h LC50/ Lum IC50: >20.6
[1]; imidazole series
  intracellular activity (primary screen): retaining potent intracellular activity
[2]
  reduction in macrophage viability: Neither compound had any reduction
[3]
  lysozyme activity: dose-dependent increase
